Source: the NIST ThermoML archive (doi:10.1016/j.jct.2015.11.023)
± gives the expanded uncertainty stated by the source.

Assay: wn = mass fraction of the nth substance listed
Conditions: for surface tension liquid-gas: Maximal bubble pressure; for mass density: 100 kPa, Liquid, Vibrating tube method

CCC[n+]1ccccc1.N#C[N-]C#N [1-propylpyridinium dicyanamide] + O
Conditions | mass density, w2 = 0.00121 [kg/m3] | mass density, w2 = 0.00271 [kg/m3] | mass density, w2 = 0.00412 [kg/m3] | mass density, w2 = 0.00573 [kg/m3] | mass density, w2 = 0.00724 [kg/m3] | surface tension liquid-gas, w2 = 0.00205 [mN/m] | surface tension liquid-gas, w2 = 0.0035 [mN/m] | surface tension liquid-gas, w2 = 0.005 [mN/m] | surface tension liquid-gas, w2 = 0.00649 [mN/m] | surface tension liquid-gas, w2 = 0.00802 [mN/m]
303.15 K | 1086.72 ± 4.1 | 1086.48 ± 4.1 | 1086.25 ± 4.1 | 1085.98 ± 4.1 | 1085.74 ± 4.1 | 58.1 ± 0.8 | 58.4 ± 0.8 | 58.7 ± 0.8 | 59 ± 0.8 | 59.3 ± 0.8
308.15 K | 1083.57 ± 4.1 | 1083.3 ± 4.1 | 1083.06 ± 4.1 | 1082.77 ± 4.1 | 1082.49 ± 4.1 | 57.8 ± 0.8 | 58.1 ± 0.8 | 58.4 ± 0.8 | 58.7 ± 0.8 | 59 ± 0.8
313.15 K | 1080.46 ± 4.1 | 1080.2 ± 4.1 | 1079.95 ± 4.1 | 1079.65 ± 4.1 | 1079.36 ± 4.1 | 57.4 ± 0.8 | 57.8 ± 0.8 | 58.1 ± 0.8 | 58.4 ± 0.8 | 58.7 ± 0.8
318.15 K | 1077.36 ± 4.1 | 1077.12 ± 4.1 | 1076.87 ± 4.1 | 1076.55 ± 4.1 | 1076.27 ± 4.1 | 57.1 ± 0.8 | 57.5 ± 0.8 | 57.8 ± 0.8 | 58.1 ± 0.8 | 58.4 ± 0.8
323.15 K | 1074.29 ± 4.1 | 1074.02 ± 4.1 | 1073.79 ± 4.1 | 1073.46 ± 4.1 | 1073.19 ± 4.1 | 56.9 ± 0.8 | 57.2 ± 0.8 | 57.5 ± 0.8 | 57.8 ± 0.8 | 58.2 ± 0.8
328.15 K | 1071.24 ± 4.1 | 1070.97 ± 4.1 | 1070.72 ± 4.1 | 1070.41 ± 4.1 | 1070.15 ± 4.1 | 56.5 ± 0.8 | 56.8 ± 0.8 | 57.2 ± 0.8 | 57.5 ± 0.8 | 57.8 ± 0.8
